Results: patent publication US12168026B2, “Methods and compositions for wound healing” (priority 2018, dated 2024)
Counter-ions that a name gives are not always drawn.

Assays:
[1] = system: P. aeruginosa (ATCC 27853); conditions: Ag+ 0.4 μg mL^−1; cited from earlier work
[2] = system: NIH 3T3 mouse fibroblast cells
Procedure: The mouse fibroblast cell line NIH-3T3, obtained from ATCC (Manassas, VA) was used for all in vitro cell-based experiments. Cell cultures were maintained at 37° C. and were fed with DMEM growth medium supplemented with 10% calf bovine serum (CBS), 2×10^−[…] (Invitrogen, Carlsbad, CA), and 1% Penicillin Streptomycin. Cells were seeded with 1.0×10^4 cells/well of the 96-well plate and were allowed to attach on the bottom of wells for 24 h. After incubation, cells were washed with […] Phosphate Buffer Saline (PBS); pH 7.4). […] Cells treated with 1% Triton X-100 (Sigma Aldrich, St Louis, MO) were used as controls for complete cell death. For the evaluation of cytotoxicity, the CellTiter 96 AQueous non-radioactive assay (Promega, Germany) was performed. This assay measures the conversion (reduction) of a weakly colored tetrazolium salt of MTS (3-{4,5-dimethylthiazol-2-yl}-5-{3-carboxymethoxyphenyl}-2-{4-sulfophenyl}-2H-tetrazolium) to brightly colored formazan by mitochondrial dehydrogenase of metabolically active (live) cells. The amount of formazan formed varies proportionally with the number of live cells. The wells were rinsed with PBS to remove non-adherent cells and then incubated in a serum-free medium containing 20% MTS reagent for 3 h at 37° C. Then, the absorbance was read in a spectrophotometric plate reader at 490 nm (BioTek Instruments, Winooski, VT).
Briefly, fibroblasts were allowed to attach on the bottom of 96-well plates (within 24-h incubation). […] Following incubation, the viability of the cells was determined by measuring cellular mitochondrial dehydrogenase activity (see Materials and Methods for details).

[3] = system: P. aeruginosa (ATCC 27853); test: Antibacterial activity of solutions of Bp, Ag+ or their mixture (viable counts after 24-h incubation); type: cell-based; conditions: for CFU decrease of P. aeruginosa: 10^7 CFU in 500 μL HBSS
Procedure: Viable bacterial counts remaining in suspension following the 24-h incubation were determined by dilution and plating.

[4] = Bp 2.5 mg mL^−1; cited from earlier work
[5] = system: rats wounds; conditions: 5 mg mL^−1 at local incisions of rats wounds; cited from earlier work

Row | SMILES | CFU decrease of P. aeruginosa (reported) [1] [log10 CFU] | toxicity toward fibroblasts ([2]; Ag+ 0.4 μg mL^−1 and up to 1.2 μg mL^−1, 24 h) | effect on viability of mammalian cells such as fibroblasts ([2]; Ag+ 1.7 μg mL^−1 and Bp 0.25 mg mL^−1) | CFU decrease of P. aeruginosa ([3]; Ag+ 0.3 μg mL^−1, 24 h) [log10 CFU] | CFU decrease of P. aeruginosa ([3]; Ag+ 0.4 μg mL^−1, 24 h) [log10 CFU] | cytotoxicity limit (concentration of agent that caused a ~50% decrease in viability of cells) ([2]; mouse, 24 h, pH 7.4) [µg/mL] | antimicrobial activity (reported) [4] | antimicrobial activity ([3]; Bp 0.5 mg mL^−1, 24 h) | collagen production [5] | inflammation [5]
1 | O=[N+]([O-])[O-].[Ag+] [Ag^+, Silver nitrate] | 6 | not to cause significant toxicity | do not significantly reduce the viability | 3 | 6 | – | – | – | – | –
2 | CCCCN1CCCCC1C(=O)Nc1c(C)cccc1C (stereo not shown) [Bp, bupivacaine hydrochloride monohydrate] | – | – | – | – | – | 1.2 | exhibit antimicrobial activity | does not exhibit antimicrobial activity | decrease collagen production | significant inflammation
